The record followed here is paper PMC4980604 (Scientific Reports, 2016).

This series has as its target T1, P-glycoprotein (P-gp) (Homo sapiens, UniProt P08183).
T1 construct: gene ABCB1; P-gp membranes (Pgp-Glo assay system)
Nature of the series: Pgp-Glo ATPase stimulation at […] (membranes). The format is biochemical.

T1 sequence (P08183 whole entry): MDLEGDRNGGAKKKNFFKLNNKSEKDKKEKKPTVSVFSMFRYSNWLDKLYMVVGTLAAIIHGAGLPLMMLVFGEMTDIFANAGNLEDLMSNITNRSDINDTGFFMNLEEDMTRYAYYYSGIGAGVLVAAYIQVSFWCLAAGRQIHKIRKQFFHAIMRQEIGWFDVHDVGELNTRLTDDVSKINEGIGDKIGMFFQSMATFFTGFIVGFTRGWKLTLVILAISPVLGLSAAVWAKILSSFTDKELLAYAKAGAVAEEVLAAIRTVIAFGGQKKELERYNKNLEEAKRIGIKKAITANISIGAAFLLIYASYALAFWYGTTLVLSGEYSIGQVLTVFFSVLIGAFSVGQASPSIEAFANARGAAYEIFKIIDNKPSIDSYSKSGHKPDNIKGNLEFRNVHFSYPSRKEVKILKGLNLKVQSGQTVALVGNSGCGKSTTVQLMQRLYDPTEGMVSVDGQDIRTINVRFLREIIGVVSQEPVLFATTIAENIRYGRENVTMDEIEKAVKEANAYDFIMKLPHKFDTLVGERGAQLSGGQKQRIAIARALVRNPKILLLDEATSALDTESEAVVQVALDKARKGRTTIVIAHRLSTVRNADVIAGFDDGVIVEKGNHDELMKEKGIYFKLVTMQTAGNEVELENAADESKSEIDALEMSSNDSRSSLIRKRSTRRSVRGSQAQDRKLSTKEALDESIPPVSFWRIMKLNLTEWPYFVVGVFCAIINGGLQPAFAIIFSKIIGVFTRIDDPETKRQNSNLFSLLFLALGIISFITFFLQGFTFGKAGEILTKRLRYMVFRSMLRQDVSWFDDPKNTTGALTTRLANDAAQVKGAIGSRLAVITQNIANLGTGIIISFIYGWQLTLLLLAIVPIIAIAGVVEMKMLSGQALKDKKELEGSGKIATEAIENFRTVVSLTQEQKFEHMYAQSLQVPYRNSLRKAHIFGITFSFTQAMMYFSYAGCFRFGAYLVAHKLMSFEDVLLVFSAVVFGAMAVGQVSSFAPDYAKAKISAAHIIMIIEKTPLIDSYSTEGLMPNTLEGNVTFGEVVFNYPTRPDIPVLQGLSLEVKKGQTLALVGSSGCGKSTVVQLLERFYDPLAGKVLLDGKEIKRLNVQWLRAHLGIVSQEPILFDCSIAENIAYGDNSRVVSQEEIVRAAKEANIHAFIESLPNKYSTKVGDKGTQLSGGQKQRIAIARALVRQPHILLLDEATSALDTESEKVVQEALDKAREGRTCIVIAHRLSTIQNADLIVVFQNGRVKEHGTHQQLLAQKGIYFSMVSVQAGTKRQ

As for `CC[C@]1(O)C[C@H]2CN(CCc3c([nH]c4ccccc34)[C@@](C(=O)OC)(c3cc4c(cc3OC)N(C=O)[C@H]3[C@@](O)(C(=O)OC)[C@H](OC(C)=O)[C@]5(CC)C=CCN6CC[C@]43[C@@H]65)C2)C1` [vincristine], the “Pgp-Glo ATPase stimulation at 2 μM (membranes)” value was “verapamil and vincristine induced an obvious increase in activity of P-gp ATPase”.
